Results taken from ChEMBL document CHEMBL6182935, “Discovery of a Novel Silybin Derivative for the Treatment of Metabolic Dysfunction-Associated Steatohepatitis” (J Med Chem, 2025).
In brackets after ≈: the same amount, converted by molar mass. Activity calls are given as the source filed them. The rule behind the calls is not given here.

Tests used:
[1] = Solubility in […] incubated for 10 mins; type: physicochemical
[2] = Solubility in water incubated for 10 mins; type: physicochemical
[3] = Antioxidant activity assessed as inhibition of DPPH free radical scavenging activity incubated for 30 mins under dark condition; type: functional
[4] = Inhibition of lipid peroxidation in egg yolk (unknown origin) preheated with compound and FeSO4 for 15 mins followed by TCA/TBA addition measured after 15 mins by absorbance based assay; type: functional, tissue-based
[5] = system: L02; assay: Anti-MASH activity in palmitate/oleate-stimulated human LO2 cells assessed as reduction in triglyceride level incubated for 24 hrs; type: functional, cell-based; settings: dose 10-40 µM
[6] = system: Hepatocyte; assay: Anti-MASH activity in palmitate/oleate-stimulated mouse primary hepatocytes assessed as reduction in triglyceride level; type: functional, cell-based
[7] = system: Hepatocyte; assay: Anti-MASH activity in palmitate/oleate-stimulated mouse primary hepatocytes assessed as reduction in lipid accumulation by Oil Red O staining assay; type: functional, cell-based
[8] = system: Hepatocyte; assay: Anti-MASH activity in palmitate/oleate-stimulated mouse primary hepatocytes assessed as reduction in FASN mRNA level by q-PCR analysis; type: functional, cell-based
[9] = system: Hepatocyte; assay: Anti-MASH activity in palmitate/oleate-stimulated mouse primary hepatocytes assessed as reduction in ACACA mRNA level by q-PCR analysis; type: functional, cell-based
[10] = system: L02; assay: Anti-MASH activity in CCl4-stimulated human LO2 cells assessed as reduction in ROS level incubated for 24 hrs by DCFH-DA staining assay; type: functional, cell-based; settings: dose 2.5-10 µM
[11] = system: LX-2; assay: Anti-MASH activity in TGF-beta-activated-human LX2 cells assessed as reduction in collagen I level incubated for 48 hrs by Western blot analysis; type: functional, cell-based; settings: dose 10-40 µM
[12] = Toxicity in male Sprague-Dawley rat model of CCl4-induced ALI assessed as animal growth at 100 mg/kg, IG qd pretreated with compound for 7 days followed by CCl4 administration after 2 hrs post-compound treatment measured after 16 hrs post-CCl4 injection; type: organism-based; settings: in vivo, po, 186 h
[13] = system: Rattus norvegicus; assay: Hepatoprotective activity in male Sprague-Dawley rat model of CCl4-induced ALI assessed as reduction in yellowing of liver at 100 mg/kg, IG qd pretreated with compound for 7 days followed by CCl4 administration after 2 hrs post-compound treatment measured after 16 hrs post-CCl4 injection; type: functional, organism-based; settings: time 186.0 hrs
[14] = system: Rattus norvegicus; assay: Hepatoprotective activity in male Sprague-Dawley rat model of CCl4-induced ALI assessed as reduction in white granular fat in liver at 100 mg/kg, IG qd pretreated with compound for 7 days followed by CCl4 administration after 2 hrs post-compound treatment measured after 16 hrs post-CCl4 injection; type: functional, organism-based; settings: time 186.0 hrs
[15] = system: Rattus norvegicus; assay: Hepatoprotective activity in male Sprague-Dawley rat model of CCl4-induced ALI assessed as reduction in […] somatic indices at 100 mg/kg, IG qd pretreated with compound for 7 days followed by CCl4 administration after 2 hrs post-compound treatment measured after 16 hrs post-CCl4 injection; type: functional, organism-based; settings: time 186.0 hrs
[16] = system: Rattus norvegicus; assay: Hepatoprotective activity in male Sprague-Dawley rat model of CCl4-induced ALI assessed as restoration of serum ALT level at 100 mg/kg, IG qd pretreated with compound for 7 days followed by CCl4 administration after 2 hrs post-compound treatment measured after 16 hrs post-CCl4 injection; type: functional, organism-based; settings: time 186.0 hrs
[17] = system: Rattus norvegicus; assay: Hepatoprotective activity in male Sprague-Dawley rat model of CCl4-induced ALI assessed as restoration of serum LDH level at 100 mg/kg, IG qd pretreated with compound for 7 days followed by CCl4 administration after 2 hrs post-compound treatment measured after 16 hrs post-CCl4 injection; type: functional, organism-based; settings: time 186.0 hrs
[18] = system: Rattus norvegicus; assay: Hepatoprotective activity in male Sprague-Dawley rat model of CCl4-induced ALI assessed as reduction in MDA level at 100 mg/kg, IG qd pretreated with compound for 7 days followed by CCl4 administration after 2 hrs post-compound treatment measured after 16 hrs post-CCl4 injection; type: functional, organism-based; settings: time 186.0 hrs
[19] = system: Mus musculus; assay: Anti-MASH activity in HFD-fed CCl4-treated male C57BL/6 mouse assessed as reversal of hepatopancreas somatic indices at 150 mg/kg, po qd treated for 4 weeks; type: functional, organism-based
[20] = system: Mus musculus; assay: Anti-MASH activity in HFD-fed CCl4-treated male C57BL/6 mouse assessed as reversal of volume of liver at 150 mg/kg, po qd treated for 4 weeks; type: functional, organism-based
[21] = system: Mus musculus; assay: Anti-MASH activity in HFD-fed CCl4-treated male C57BL/6 mouse assessed as restoration of serum AST level at 150 mg/kg, po qd treated for 4 weeks; type: functional, organism-based
[22] = system: Mus musculus; assay: Anti-MASH activity in HFD-fed CCl4-treated male C57BL/6 mouse assessed as reduction in hepatocyte ballooning in liver at 150 mg/kg, po qd treated for 4 weeks by H and E/Oil red O staining based analysis; type: functional, organism-based
[23] = system: Mus musculus; assay: Anti-MASH activity in HFD-fed CCl4-treated male C57BL/6 mouse assessed as reduction in inflammation in liver at 150 mg/kg, po qd treated for 4 weeks by H and E/Oil red O staining based analysis; type: functional, organism-based
[24] = system: Mus musculus; assay: Anti-MASH activity in HFD-fed CCl4-treated male C57BL/6 mouse assessed as reduction in fat dyslipidemia at 150 mg/kg, po qd treated for 4 weeks; type: functional, organism-based
[25] = system: Mus musculus; assay: Anti-MASH activity in HFD-fed CCl4-treated male C57BL/6 mouse assessed as reduction in serum triglyceride level at 150 mg/kg, po qd treated for 4 weeks; type: functional, organism-based
[26] = system: Mus musculus; assay: Anti-MASH activity in HFD-fed CCl4-treated male C57BL/6 mouse assessed as reduction in hepatic cholesterol level at 150 mg/kg, po qd treated for 4 weeks by ELISA; type: functional, organism-based
[27] = system: Mus musculus; assay: Anti-MASH activity in HFD-fed CCl4-treated male C57BL/6 mouse assessed as decrease in liver MDA level at 150 mg/kg, po qd treated for 4 weeks; type: functional, organism-based
[28] = system: Mus musculus; assay: Anti-MASH activity in HFD-fed CCl4-treated male C57BL/6 mouse assessed as restoration of liver GSH-Px level at 150 mg/kg, po qd treated for 4 weeks; type: functional, organism-based
[29] = system: Mus musculus; assay: Anti-MASH activity in HFD-fed CCl4-treated male C57BL/6 mouse assessed as reduction in liver IL-6 level at 150 mg/kg, po qd treated for 4 weeks by ELISA; type: functional, organism-based
[30] = system: Mus musculus; assay: Anti-MASH activity in HFD-fed CCl4-treated male C57BL/6 mouse assessed as reduction in collagen deposition in liver at 150 mg/kg, po qd treated for 4 weeks by Masson staining based analysis; type: functional, organism-based
[31] = MRT (0 to infinity) in overnight-fasted male Sprague-Dawley rat at 150 mg/kg, po measured up to 12 hrs by HPLC analysis; type: ADME, organism-based; settings: in vivo
[32] = Apparent volume of distribution during terminal phase in overnight-fasted male Sprague-Dawley rat at 150 mg/kg, po measured up to 12 hrs by HPLC analysis; type: ADME, organism-based; settings: in vivo, read-out: Vz/F
[33] = Acute toxicity in male KM mouse assessed as abnormalities in animal at 2 g/kg, po administered as single dose measured after 2 weeks; type: organism-based; settings: in vivo, 2000 mg/kg, 336 h

In the case of `COc1cc([C@@H]2Oc3cc([C@H]4Oc5cc(O)cc(O)c5C(=O)[C@@H]4O)ccc3OC2CS)ccc1O` (stereo partly drawn), the solubility [1] is reported as > 1000 mg/mL, the solubility at 10 min [2] is reported as 0.25 mg/mL (≈ 0.501 mM) and the IC50 [3] is reported as 33.4 µM. The IC50 [4] was 41.7 µM, the Activity [5] was “Dose-dependent-effect” and the Activity [6] was “Active”. For the same compound, the Activity [7] was “Active”, the Activity [8] was “Active” and the Activity [9] was “Active”. For the same compound, the Activity [10] was “Active”, the Activity [11] was “Dose-dependent-effect” and the Activity [12] was “Non-toxic”. For the same compound, the Activity [13] was “Active”, the Activity [14] was “Active” and the Activity [15] was “Active”. The Activity [16] was “Active”, the Activity [17] was “Active” and the Activity [18] was “Active; Exhibited Better Efficacy Than Silybin”. The Activity [19] was “Active”, the Activity [20] was “Active; Activity Better Than Silybin” and the Activity [21] was “Active; Activity Was Better Than Silybin”. The Activity [22] was “Active; Activity Was Better Than Silybin”, the Activity [23] was “Active; Activity Was Better Than Silybin” and the Activity [24] was “Active”. For the same compound, the Activity [25] was “Active”, the Activity [26] was “Active; Activity Was More Significant Than Silybin” and the Activity [27] was “Active; Compound Was More Significant Than Silybin”. The Activity [28] was “Active”, the Activity [29] was “Active” and the Activity [30] was “Active”. For the same compound, the MRT inf [31] was 3.51 h, the Vd/F [32] was 6.91 L and the Activity [33] was “Non-toxic”.
